Test results from patent US9101577B2, “Analgesic pharmaceutical composition for oral administration” (Warszawski Uniwersytet Medyczny, priority 2011, dated 2015).

Assays:
Male Wistar rats [1] = assay: Prolonged activity on repeated daily p.o. administration (7 or 10 days), paw withdrawal test (Randall and Selitto); format: in vivo, rat; details: for pain threshold on separate administration, 7 days (morphine study): morphine 15 mg/kg
Protocol: (§1) Male Wistar rats (250-300 g) were housed in a room maintained at a temperature of 20±2° C. under 12 h-12 h light-dark cycles. The animals had free access to food and water. Experimental groups consisted of six rats.
(§2) Drugs • Morphine at a dose of 15 mg/kg, codeine at a dose of 175 mg/kg, tramadol at a dose of 125 mg/kg and oxycodone at a dose of 5 mg/kg were dissolved in distilled water; • Dihydrocodeine at a dose of 50 mg/kg was suspended in 1% solution of methylcellulose; • Magnesium lactate (in micronized form)—at a dose of 15 mg magnesium ions/kg (150 mg of magnesium lactate/kg) was suspended in 0.5% solution of methylcellulose; • Magnesium lactate in normal (non-micronized) form—at doses of 15 or 30 mg magnesium ions/kg (150 or 300 mg of magnesium lactate/kg, respectively) was suspended in 0.5% solution of methylcellulose; • Magnesium citrate (in micronized and normal form)—at a dose of 15 mg magnesium ions/kg (112 mg of magnesium citrate/kg) was dissolved in distilled water; • Magnesium hydroaspartate (in micronized and normal form)—at a dose of 15 mg magnesium ions/kg (216 mg of magnesium hydroaspartate/kg) was suspended in 0.5% solution of methylcellulose; • Magnesium chloride (in micronized and normal form)—at a dose of 15 mg magnesium ions/kg (59.5 mg of magnesium chloride/kg) was dissolved in distilled water; • Control animals received a 0.5% solution of methylcellulose, a 1% solution of methylcellulose and distilled water, respectively, according to the same time schedule.
Prolonged activity of the investigated drugs was measured the following day after initial administration, but before the next administration as well as after cessation of administration. Drugs were administered for seven consecutive days (administration of morphine, codeine, dihydrocodeine, oxycodone) or for ten days (administration of tramadol).
(§3) All drugs were administered per os (p.o.); literally—orally. However, in practice, drugs were administered intragastric via a gastric tube.
(§4) Changes in pain thresholds were determined using a mechanical stimuli—the modification of the classic paw withdrawal test described by Randall and Selitto [1957]. In order to produce mechanical stimulation, progressively increasing pressure was applied to the dorsal surface of the rat's paw using an analgesymeter. The instrument used increased the force on the paw at a rate of 32 grams per second. The nociceptive threshold was defined as force in grams, at which the rat attempted to withdraw its right hindpaw and values of pressure were recorded at this very moment. At least two observers controlled the response.
(§5) Nociceptive thresholds (average of two trials) measured for each animal before single administration of investigated drugs (measurement of acute activity) or in day 0 before the first administration (measurement of prolonged activity) constituted the baseline pain threshold—A. Next, measurements of the withdrawal threshold to mechanical stimuli were performed at 5, 15, 30, 60, 90, 120, 180, 240, 300 min after drug administration (measurements of acute activity) or every day before drug administration (measurements of prolonged activity)—B.
(§6) In all experimental sessions (i.e. every day, each drug investigated) values of thresholds obtained (B) were compared to baseline (A).
(§7) Changes in pain threshold were calculated as a percent of baseline value according to the following formula:
(§8) [formula] • C—% of analgesia; A—pressure (in g), baseline pain threshold; B—pressure (in g) in consecutive measurements.
(§9) Percents of analgesia values calculated as above for individual animals were subsequently used to calculate average values in particular experimental groups and for statistical analysis.
The results are expressed as mean values±standard […] of the mean (±S.E.M.). The statistical significance of differences between groups was evaluated by Student's t-test. p≦0.05 was accepted as statistically significant.

Male Wistar rats [2] = assay: Acute activity after single p.o. administration, paw withdrawal test (Randall and Selitto), % of analgesia; format: in vivo, rat; details: for analgesic activity / pain threshold when administered alone (morphine study): morphine 15 mg/kg
Protocol: as §1, §2
Magnesium salts and investigated opioids were administered concomitantly.
The micronized form of magnesium salts used in experiments contains particles of magnesium compounds of size D90<50 μm.
The normal magnesium salts form used in experiments contains particles of sizes commonly available in the market.
Acute activity of investigated drugs was measured in short time periods (from 5 to 300 min) after single administration.
as §3, §4, §5, §6, §7, §8, §9
The results are expressed as mean values±standard deviation of the mean (±S.E.M.).

[3] = 15 mg magnesium ions/kg p.o. with oxycodone 5 mg/kg p.o., 7 consecutive days
[4] = single administration, 15 mg magnesium ions/kg p.o. with tramadol 125 mg/kg p.o.
[5] = 15 mg magnesium ions/kg p.o. with codeine 175 mg/kg p.o., 7 days
[6] = 15 mg magnesium ions/kg p.o. with dihydrocodeine 50 mg/kg p.o., 7 days
[7] = 15 mg magnesium ions/kg p.o. with morphine 15 mg/kg p.o., 7 days
[8] = 15 mg magnesium ions/kg p.o. with tramadol 125 mg/kg p.o., 10 consecutive days
[9] = separate administration p.o., magnesium lactate micronized 15 or normal 30 mg magnesium ions/kg
[10] = single administration, 15 mg magnesium ions/kg p.o. with dihydrocodeine 50 mg/kg p.o.
[11] = single administration, 15 mg magnesium ions/kg p.o. with morphine 15 mg/kg p.o.
[12] = single administration, 15 mg magnesium ions/kg p.o. with oxycodone 5 mg/kg p.o.
[13] = single separate administration p.o., magnesium salts 15 mg magnesium ions/kg

## CC(O)C(=O)[O-].CC(O)C(=O)[O-].[Mg+2] (stereo not drawn) [magnesium lactate, Magnesium lactate]
Male Wistar rats [1]; 15 mg magnesium ions/kg p.o. with oxycodone 5 mg/kg p.o.
  pain threshold one day after removal of the tested substances (oxycodone study): rapid return of the pain threshold to control values
Male Wistar rats [1]; [3]
  course of enhancement of oxycodone analgesia: reached its maximum on days 6 and 7
  day on which enhancement of oxycodone analgesia began: third
  effect on long-term analgesic activity of oxycodone: enhanced the long-term analgesic activity of the examined opioid
Male Wistar rats [2]; [4]
  enhancement of tramadol analgesia lasted until: 45 min
  time at which enhancement of tramadol analgesia appeared: 5 min
  time of maximum activity on tramadol analgesia: 15 min

## CC(O)C(=O)[O-].CC(O)C(=O)[O-].[Mg+2] (stereo not drawn) [micronized magnesium lactate, Magnesium lactate]
Male Wistar rats [1]; [5]
  course of enhancement of codeine analgesia: reached a maximum on days 6 and 7
  day on which enhancement of codeine analgesia began: fourth
  effect on analgesic activity of chronically administered codeine: also enhanced analgesic activity of chronically administered codeine
Male Wistar rats [1]; 15 mg magnesium ions/kg p.o. with codeine 175 mg/kg p.o., days 8-10
  activity after cessation of drug administration (codeine study): rapidly decreased
Male Wistar rats [1]; [6]
  course of enhancement of dihydrocodeine analgesia: reached a maximum on days 6 and 7
  day on which enhancement of dihydrocodeine analgesia began: fourth
  effect on analgesic activity of chronically administered dihydrocodeine: gradually enhanced the analgesic activity of chronically administered dihydrocodeine
Male Wistar rats [1]; 15 mg magnesium ions/kg p.o. with dihydrocodeine 50 mg/kg p.o., days 8-10
  pain threshold after cessation of drug administration (dihydrocodeine study): the pain threshold rapidly reduced to control values
Male Wistar rats [1]; [7]
  course of enhancement of morphine analgesia: grew gradually to 7 day
  day on which enhancement of morphine analgesia began: 3 days
  effect on analgesic activity of morphine, 7-day administration: also enhanced the analgesic activity of morphine
Male Wistar rats [1]; 15 mg magnesium ions/kg p.o. with morphine 15 mg/kg p.o., days 8-10
  pain threshold after cessation of drug administration (morphine study): gradual return to baseline values
Male Wistar rats [1]; [8]
  course of enhancement of tramadol analgesia: gradually increased (to day 7), and then was maintained to day 10
  day on which enhancement of tramadol analgesia began: third
  effect on long-term analgesic activity of tramadol: enhanced the long-term analgesic activity of the examined opioid
Male Wistar rats [1]; 15 mg magnesium ions/kg p.o. with tramadol 125 mg/kg p.o., days 11-12
  pain threshold after removal of the tested substances (tramadol study): the pain threshold returned to control values by day 11
Male Wistar rats [1]; separate administration p.o., codeine 175 mg/kg, magnesium lactate micronized 15 or normal 30 mg magnesium ions/kg
  analgesic activity on separate administration, 7 days (codeine study): did not exhibit analgesic activity
Male Wistar rats [1]; separate administration p.o., dihydrocodeine 50 mg/kg, magnesium lactate micronized 15 or normal 30 mg magnesium ions/kg
  pain threshold on separate administration, 7 days (dihydrocodeine study): did not alter the pain threshold
Male Wistar rats [1]; [9]
  pain threshold on separate administration, 7 days (morphine study): did not alter the pain threshold
Male Wistar rats [1]; separate administration p.o., oxycodone 5 mg/kg, magnesium lactate micronized 15 or normal 30 mg magnesium ions/kg
  analgesic activity on separate administration, 7 days (oxycodone study): did not exhibit analgesic activity
Male Wistar rats [1]; separate administration p.o., tramadol 125 mg/kg, magnesium lactate micronized 15 or normal 30 mg magnesium ions/kg
  pain threshold on separate administration, 10 days (tramadol study): did not alter the pain threshold
Male Wistar rats [2]; single administration, 15 mg magnesium ions/kg p.o. with codeine 175 mg/kg p.o.
  effect on analgesic activity of codeine: significantly enhanced the analgesic activity of codeine
Male Wistar rats [2]; [10]
  effect on dihydrocodeine analgesia: significantly enhanced dihydrocodeine analgesia
  time course of activity on dihydrocodeine analgesia: gradually increased and reached a maximum between min 45 and 90 of the measurements and then became weaker by min 210
Male Wistar rats [2]; [11]
  effect on morphine analgesia: significantly enhanced morphine analgesia
  enhancement of morphine analgesia lasted up to: 240 min
  time at which enhancement of morphine analgesia appeared: 30 min
Male Wistar rats [2]; [12]
  effect on oxycodone analgesia: significantly enhanced oxycodone analgesia
  time at which activity on oxycodone analgesia appeared: 5 min
  time course of activity on oxycodone analgesia: maintained at a constant level up to min 30 of the study, then became weaker in min 45 and disappeared in min 60
Male Wistar rats [2]; [4]
  effect on antinociceptive activity of tramadol: increased antynociceptive activity of tramadol
Male Wistar rats [2]; single separate administration p.o., codeine 175 mg/kg, magnesium salts 15 mg magnesium ions/kg
  analgesic activity on separate administration (codeine study): did not exhibit analgesic activity
Male Wistar rats [2]; single separate administration p.o., dihydrocodeine 50 mg/kg, magnesium salts 15 mg magnesium ions/kg
  analgesic activity / pain perception threshold on separate administration (dihydrocodeine study): did not exhibit analgesic activity
Male Wistar rats [2]; [13]
  analgesic activity / pain threshold when administered alone (morphine study): Neither morphine nor magnesium lactate and chloride in micronized or normal form administered alone showed analgesic activity
Male Wistar rats [2]; single separate administration p.o., oxycodone 5 mg/kg, magnesium salts 15 mg magnesium ions/kg
  analgesic activity on separate administration (oxycodone study): showed no analgesic activity
Male Wistar rats [2]; single separate administration p.o., tramadol 125 mg/kg, magnesium salts 15 mg magnesium ions/kg
  analgesic activity on separate administration (tramadol study): did not exhibit analgesic activity

## CN1CC[C@]23c4c5ccc(O)c4O[C@H]2[C@@H](O)C=C[C@H]3[C@H]1C5 [morphine, reference compound]
Male Wistar rats [1]; [9]
  pain threshold on separate administration, 7 days (morphine study): slightly increased the threshold for mechanical nociceptive stimuli
Male Wistar rats [2]; [13]
  analgesic activity / pain threshold when administered alone (morphine study): Neither morphine nor magnesium lactate and chloride in micronized or normal form administered alone showed analgesic activity
